In patent publication US11957696B2 (Propella Therapeutics, Inc., priority 2021, dated 2024):

What was measured:
[1] = format: physicochemical
Method: The solids were filtered and analyzed by XRD to determine the resulting form(s). The solvents used in this study include: water, acetonitrile, isopropyl ether/acetonitrile (1:4), 2-butanol/water (1:1), 1-propanol/water (1:1), t-butanol/water (1:1), ethanol/water (1:1), THF/water (1:1), acetone/water (1:1), dioxane/water (1:1), 2-butanone/water (1:1), methanol, DMF/water (1:1), ethyl acetate/water (1:1), and heptane.
A competitive study was also carried out. […] Samples were stirred for 3 days and filtered.

[2] = IM injection of aqueous suspension and vegetable oil solution of abiraterone acetate; format: in vivo; settings: vegetable oil solution compared with aqueous suspension, rats
Method: Typically, the abiraterone prodrugs of the present disclosure are formulated as a non-aqueous solution or suspension. […] For example, as detailed herein, IM injections of an aqueous suspension and a vegetable oil solution of the abiraterone acetate prodrug were evaluated in rats. […] Accordingly, in some embodiments, the abiraterone prodrug formulations herein can include an abiraterone prodrug of the present disclosure (e.g., compound of Formula I or II) dissolved or dispersed in a pharmaceutically acceptable carrier. In some embodiments, the pharmaceutically acceptable carrier can be any suitable nonaqueous vehicle suitable for injection, such as those described in U.S. Pharmacopeia. In some embodiments, the pharmaceutically acceptable carrier can be a pharmaceutically acceptable oil, e.g., a vegetable oil, castor oil, corn oil, sesame oil, cottonseed oil, peanut oil, poppy seed oil, tea seed oil, or soybean oil. In some embodiments, the pharmaceutically acceptable oil can be oils (e.g., described herein), suitable for use as vehicles for injection, e.g., meeting the criteria as described in the corresponding U.S. Pharmacopeia monograph. In some embodiments, the pharmaceutically acceptable oil can be an oil of vegetable origin suitable for use as vehicles for injection. […]

Row | SMILES | thermodynamic stability of polymorph [1] | blood plasma levels and duration of exposure of abiraterone [2]
1 | CCCCCCCCCC(=O)O[C@H]1CC[C@@]2(C)C(=CC[C@@H]3[C@@H]2CC[C@]2(C)C(c4cccnc4)=CC[C@@H]32)C1 [Form A, abiraterone decanoate] | thermodynamically stable form under ambient conditions | 
2 | CC(=O)O[C@H]1CC[C@@]2(C)C(=CC[C@@H]3[C@@H]2CC[C@]2(C)C(c4cccnc4)=CC[C@@H]32)C1 [abiraterone acetate, (3β)-17-(3-Pyridyl)androsta-5, acetate] |  | highest blood plasma levels and the longest duration of exposure
